The numbers were not newly measured in patent US20170022147A1, “FUMARATE COMPOUNDS, PHARMACEUTICAL COMPOSITIONS THEREOF, AND METHODS OF USE” (priority 2015, published 2017), which cites them from elsewhere.

Turning to `COC(=O)/C=C/C(=O)OC` [DMF, dimethylfumarate], the aqueous solubility result is recorded as “poor”.
